The NIST ThermoML archive (doi:10.1021/acs.jced.5b00105)
Numbers after ± are expanded uncertainties.

Experiment: xn = mol fraction of the nth substance listed
Conditions: for surface tension liquid-gas: Drop volume; for viscosity / mass density: 100 kPa, Liquid; for viscosity: Concentric cylinders viscometry; for mass density: Vibrating tube method

CCC1CCCCC1 [ethylcyclohexane] + CC(C)CC(C)(C)C
Conditions	mass density [kg/m3]	surface tension liquid-gas [mN/m]	viscosity [mPa·s]
293.15 K, x1 = 0.1	700.76 ± 0.19	19.51 ± 0.24	0.54 ± 0.087
293.15 K, x1 = 0.1999	–	19.99 ± 0.24	–
293.15 K, x1 = 0.2	709.8 ± 0.18	–	0.565 ± 0.091
293.15 K, x1 = 0.3	–	20.57 ± 0.24	–
293.15 K, x1 = 0.3003	719.07 ± 0.18	–	0.591 ± 0.095
293.15 K, x1 = 0.3997	728.38 ± 0.17	–	0.619 ± 0.099
293.15 K, x1 = 0.4	–	21.13 ± 0.24	–
293.15 K, x1 = 0.5	–	21.74 ± 0.24	–
293.15 K, x1 = 0.5002	737.96 ± 0.17	–	0.65 ± 0.1
293.15 K, x1 = 0.6001	–	22.44 ± 0.24	–
293.15 K, x1 = 0.6005	747.68 ± 0.16	–	0.684 ± 0.11
293.15 K, x1 = 0.7002	757.5 ± 0.16	–	0.719 ± 0.12
293.15 K, x1 = 0.7004	–	23.16 ± 0.24	–
293.15 K, x1 = 0.8001	–	24 ± 0.24	–
293.15 K, x1 = 0.8003	767.49 ± 0.15	–	0.758 ± 0.12
293.15 K, x1 = 0.8994	–	24.75 ± 0.24	–
293.15 K, x1 = 0.8997	777.58 ± 0.15	–	0.801 ± 0.13
293.15 K, x1 = 1	787.98 ± 0.15	25.47 ± 0.24	0.848 ± 0.14
298.15 K, x1 = 0.1	696.71 ± 0.19	18.91 ± 0.24	0.513 ± 0.082
298.15 K, x1 = 0.1999	–	19.38 ± 0.24	–
298.15 K, x1 = 0.2	705.71 ± 0.18	–	0.536 ± 0.086
298.15 K, x1 = 0.3	–	19.88 ± 0.24	–
298.15 K, x1 = 0.3003	715.02 ± 0.18	–	0.56 ± 0.09
298.15 K, x1 = 0.3997	724.34 ± 0.17	–	0.586 ± 0.094
298.15 K, x1 = 0.4	–	20.4 ± 0.24	–
298.15 K, x1 = 0.5	–	21.01 ± 0.24	–
298.15 K, x1 = 0.5002	733.9 ± 0.17	–	0.613 ± 0.098
298.15 K, x1 = 0.6001	–	21.67 ± 0.24	–
298.15 K, x1 = 0.6005	743.64 ± 0.16	–	0.644 ± 0.1
298.15 K, x1 = 0.7002	753.47 ± 0.16	–	0.677 ± 0.11
298.15 K, x1 = 0.7004	–	22.45 ± 0.24	–
298.15 K, x1 = 0.8001	–	23.23 ± 0.24	–
298.15 K, x1 = 0.8003	763.46 ± 0.16	–	0.712 ± 0.11
298.15 K, x1 = 0.8994	–	24 ± 0.24	–
298.15 K, x1 = 0.8997	773.57 ± 0.15	–	0.751 ± 0.12
298.15 K, x1 = 1	783.97 ± 0.15	24.76 ± 0.24	0.793 ± 0.13
303.15 K, x1 = 0.1	692.57 ± 0.19	18.49 ± 0.24	0.489 ± 0.078
303.15 K, x1 = 0.2	701.62 ± 0.18	18.96 ± 0.24	0.509 ± 0.082
303.15 K, x1 = 0.3003	710.92 ± 0.18	19.61 ± 0.24	0.531 ± 0.085
303.15 K, x1 = 0.3997	720.25 ± 0.17	19.97 ± 0.24	0.555 ± 0.089
303.15 K, x1 = 0.5002	729.84 ± 0.17	20.62 ± 0.24	0.581 ± 0.093
303.15 K, x1 = 0.6005	739.57 ± 0.16	21.24 ± 0.24	0.609 ± 0.098
303.15 K, x1 = 0.7002	749.4 ± 0.16	22.12 ± 0.24	0.638 ± 0.1
303.15 K, x1 = 0.8003	759.41 ± 0.16	22.89 ± 0.24	0.671 ± 0.11
303.15 K, x1 = 0.8997	769.52 ± 0.15	23.75 ± 0.24	0.706 ± 0.11
303.15 K, x1 = 1	779.93 ± 0.15	24.55 ± 0.24	0.745 ± 0.12
308.15 K, x1 = 0.1	688.43 ± 0.19	18 ± 0.23	0.466 ± 0.075
308.15 K, x1 = 0.1999	–	18.45 ± 0.23	–
308.15 K, x1 = 0.2	697.49 ± 0.18	–	0.485 ± 0.078
308.15 K, x1 = 0.3	–	18.91 ± 0.23	–
308.15 K, x1 = 0.3003	706.8 ± 0.18	–	0.505 ± 0.081
308.15 K, x1 = 0.3997	716.14 ± 0.17	–	0.527 ± 0.084
308.15 K, x1 = 0.4	–	19.39 ± 0.23	–
308.15 K, x1 = 0.5	–	19.98 ± 0.24	–
308.15 K, x1 = 0.5002	725.74 ± 0.17	–	0.55 ± 0.088
308.15 K, x1 = 0.6001	–	20.65 ± 0.24	–
308.15 K, x1 = 0.6005	735.47 ± 0.17	–	0.577 ± 0.092
308.15 K, x1 = 0.7002	745.32 ± 0.16	–	0.604 ± 0.097
308.15 K, x1 = 0.7004	–	21.4 ± 0.24	–
308.15 K, x1 = 0.8001	–	22.11 ± 0.24	–
308.15 K, x1 = 0.8003	755.35 ± 0.16	–	0.634 ± 0.1
308.15 K, x1 = 0.8994	–	22.94 ± 0.24	–
308.15 K, x1 = 0.8997	765.46 ± 0.15	–	0.666 ± 0.11
308.15 K, x1 = 1	775.88 ± 0.15	23.74 ± 0.24	0.702 ± 0.11
313.15 K, x1 = 0.1	–	–	0.446 ± 0.072
313.15 K, x1 = 0.1012	684.26 ± 0.19	–	–
313.15 K, x1 = 0.2	–	–	0.464 ± 0.074
313.15 K, x1 = 0.2003	693.35 ± 0.18	–	–
313.15 K, x1 = 0.3001	702.64 ± 0.18	–	–
313.15 K, x1 = 0.3003	–	–	0.482 ± 0.077
313.15 K, x1 = 0.3997	–	–	0.503 ± 0.081
313.15 K, x1 = 0.4019	712.01 ± 0.18	–	–
313.15 K, x1 = 0.5002	–	–	0.524 ± 0.084
313.15 K, x1 = 0.5008	721.61 ± 0.17	–	–
313.15 K, x1 = 0.6	731.36 ± 0.17	–	–
313.15 K, x1 = 0.6005	–	–	0.548 ± 0.088
313.15 K, x1 = 0.6998	741.23 ± 0.16	–	–
313.15 K, x1 = 0.7002	–	–	0.573 ± 0.092
313.15 K, x1 = 0.8	751.26 ± 0.16	–	–
313.15 K, x1 = 0.8003	–	–	0.601 ± 0.096
313.15 K, x1 = 0.8997	–	–	0.63 ± 0.1
313.15 K, x1 = 0.9	761.39 ± 0.16	–	–
313.15 K, x1 = 1	771.82 ± 0.15	–	0.663 ± 0.11
318.15 K, x1 = 0.1	–	–	0.429 ± 0.069
318.15 K, x1 = 0.1012	680.05 ± 0.19	–	–
318.15 K, x1 = 0.2	–	–	0.445 ± 0.071
318.15 K, x1 = 0.2003	689.16 ± 0.19	–	–
318.15 K, x1 = 0.3001	698.38 ± 0.18	–	–
318.15 K, x1 = 0.3003	–	–	0.461 ± 0.074
318.15 K, x1 = 0.3997	–	–	0.481 ± 0.077
318.15 K, x1 = 0.4019	707.8 ± 0.18	–	–
318.15 K, x1 = 0.5002	–	–	0.5 ± 0.08
318.15 K, x1 = 0.5008	717.38 ± 0.17	–	–
318.15 K, x1 = 0.6	727.09 ± 0.17	–	–
318.15 K, x1 = 0.6005	–	–	0.522 ± 0.084
318.15 K, x1 = 0.6998	737.02 ± 0.16	–	–
318.15 K, x1 = 0.7002	–	–	0.548 ± 0.088
318.15 K, x1 = 0.8	747.05 ± 0.16	–	–
318.15 K, x1 = 0.8003	–	–	0.573 ± 0.092
318.15 K, x1 = 0.8997	–	–	0.598 ± 0.096
318.15 K, x1 = 0.9	757.21 ± 0.16	–	–
318.15 K, x1 = 1	767.69 ± 0.15	–	0.628 ± 0.1
323.15 K, x1 = 0.1	–	–	0.412 ± 0.066
323.15 K, x1 = 0.1012	675.82 ± 0.19	–	–
323.15 K, x1 = 0.2	–	–	0.427 ± 0.068
323.15 K, x1 = 0.2003	684.95 ± 0.19	–	–
323.15 K, x1 = 0.3001	694.19 ± 0.18	–	–
323.15 K, x1 = 0.3003	–	–	0.442 ± 0.071
323.15 K, x1 = 0.3997	–	–	0.46 ± 0.074
323.15 K, x1 = 0.4019	703.63 ± 0.18	–	–
323.15 K, x1 = 0.5002	–	–	0.478 ± 0.077
323.15 K, x1 = 0.5008	713.22 ± 0.17	–	–
323.15 K, x1 = 0.6	722.95 ± 0.17	–	–
323.15 K, x1 = 0.6005	–	–	0.499 ± 0.08
323.15 K, x1 = 0.6998	732.88 ± 0.16	–	–
323.15 K, x1 = 0.7002	–	–	0.522 ± 0.084
323.15 K, x1 = 0.8	742.93 ± 0.16	–	–
323.15 K, x1 = 0.8003	–	–	0.546 ± 0.088
323.15 K, x1 = 0.8997	–	–	0.569 ± 0.091
323.15 K, x1 = 0.9	753.1 ± 0.16	–	–
323.15 K, x1 = 1	763.59 ± 0.15	–	0.597 ± 0.096
333.15 K, x1 = 0.1	–	–	0.383 ± 0.061
333.15 K, x1 = 0.1012	667.27 ± 0.19	–	–
333.15 K, x1 = 0.2	–	–	0.396 ± 0.064
333.15 K, x1 = 0.2003	676.43 ± 0.19	–	–
333.15 K, x1 = 0.3001	685.73 ± 0.18	–	–
333.15 K, x1 = 0.3003	–	–	0.409 ± 0.066
333.15 K, x1 = 0.3997	–	–	0.425 ± 0.068
333.15 K, x1 = 0.4019	695.2 ± 0.18	–	–
333.15 K, x1 = 0.5002	–	–	0.44 ± 0.071
333.15 K, x1 = 0.5008	704.82 ± 0.18	–	–
333.15 K, x1 = 0.6	714.58 ± 0.17	–	–
333.15 K, x1 = 0.6005	–	–	0.457 ± 0.073
333.15 K, x1 = 0.6998	724.55 ± 0.17	–	–
333.15 K, x1 = 0.7002	–	–	0.478 ± 0.077
333.15 K, x1 = 0.8	734.62 ± 0.16	–	–
333.15 K, x1 = 0.8003	–	–	0.498 ± 0.08
333.15 K, x1 = 0.8997	–	–	0.518 ± 0.083
333.15 K, x1 = 0.9	744.81 ± 0.16	–	–
333.15 K, x1 = 1	755.35 ± 0.15	–	0.541 ± 0.087
343.15 K, x1 = 0.1	–	–	0.358 ± 0.057
343.15 K, x1 = 0.1012	658.57 ± 0.2	–	–
343.15 K, x1 = 0.2	–	–	0.369 ± 0.059
343.15 K, x1 = 0.2003	667.78 ± 0.19	–	–
343.15 K, x1 = 0.3001	677.13 ± 0.19	–	–
343.15 K, x1 = 0.3003	–	–	0.38 ± 0.061
343.15 K, x1 = 0.3997	–	–	0.395 ± 0.063
343.15 K, x1 = 0.4019	686.64 ± 0.18	–	–
343.15 K, x1 = 0.5002	–	–	0.408 ± 0.065
343.15 K, x1 = 0.5008	696.31 ± 0.18	–	–
343.15 K, x1 = 0.6	706.12 ± 0.17	–	–
343.15 K, x1 = 0.6005	–	–	0.423 ± 0.068
343.15 K, x1 = 0.6998	716.12 ± 0.17	–	–
343.15 K, x1 = 0.7002	–	–	0.441 ± 0.071
343.15 K, x1 = 0.8	726.23 ± 0.17	–	–
343.15 K, x1 = 0.8003	–	–	0.458 ± 0.073
343.15 K, x1 = 0.8997	–	–	0.476 ± 0.076
343.15 K, x1 = 0.9	736.46 ± 0.16	–	–
343.15 K, x1 = 1	747.03 ± 0.16	–	0.496 ± 0.08
